According to patent US7534898B2, “Process for producing monatin or salt thereof” (Ajinomoto Co., Inc., priority 2004, dated 2009):
Values belong to the compound of their own block, whether it stands above or below them.

Assays:
[1] = cited from earlier work; for intensity as a sweetener (strength of sweetness): comparison among the four optical isomers of monatin, Patent Document 5
[2] = solubility in ethanol (crystallization with ethanol as poor solvent); format: physicochemical; conditions: compared with (2R,4R) monatin
Text: It is also possible to efficiently separate the steric isomers by utilizing the difference in solubility of (2S,4R) monatin and (2R,4R) monatin or of (2R,4S) monatin and (2S,4S) monatin in ethanol. […] Therefore, before crystallization of (2R,4R) monatin (salt), (2S,4R) monatin is firstly crystallized and the resulting crystals are removed. […] In case crystals of (2S,4R) monatin are previously removed by means of crystallization, it is possible to efficiently remove (2S,4R) monatin from the reaction solution when the crystallizing temperature is set at as high as about 70 to 80° C. and the crystals prepared by the crystallization are preferably filtered when they are still at high temperature. In addition, the crystals of (2R,4R) monatin (salt) prepared may be recrystallized the same as above for making the purity higher. The above is also the same in the case of (2R,4S) monatin and (2S,4S) monatin.

SMILES: N[C@@H](C[C@@](O)(Cc1c[nH]c2ccccc12)C(=O)O)C(=O)O (stereo in doubt) [(2S,4S) monatin, 4-hydroxy-4-(3-indolylmethyl)-2-aminoglutaric acid]
sweet taste relative to sucrose ([1]; compared with sucrose, Patent Document 1): several hundred times as sweet as sucrose
intensity as a sweetener (strength of sweetness) [1]: lower strength of sweetness

SMILES: N[C@@H](C[C@@](O)(Cc1c[nH]c2ccccc12)C(=O)O)C(=O)O (stereo in doubt) [(2R,4S) monatin, 4-hydroxy-4-(3-indolylmethyl)-2-aminoglutaric acid]
intensity as a sweetener (strength of sweetness) [1]: far better in terms of intensity as a sweetener

solubility in ethanol [2]: low as compared with (2R,4R) monatin
SMILES: N[C@@H](C[C@@](O)(Cc1c[nH]c2ccccc12)C(=O)O)C(=O)O (stereo in doubt) [(2S,4R) monatin, 4-hydroxy-4-(3-indolylmethyl)-2-aminoglutaric acid]
intensity as a sweetener (strength of sweetness) [1]: lower strength of sweetness

SMILES: N[C@H](C[C@@](O)(Cc1c[nH]c2ccccc12)C(=O)O)C(=O)O (stereo in doubt) [(2R,4R) monatin, 4-hydroxy-4-(3-indolylmethyl)-2-aminoglutaric acid]
intensity as a sweetener (strength of sweetness) [1]: far better in terms of intensity as a sweetener
